{"source": "patent US5470873A", "about": "“Diabetes prevention and treatment using gamma-pyrones” (University Technologies International, Inc., priority 1994, dated 1995)", "system": "pancreatic beta cells", "test": "Destruction of pancreatic beta cells detected by fluorescein labelled anti-insulin antibody", "assay_type": "in vivo, NOD mice", "set-up": "key to Diabetes: \"+\" indicates \"yes\"; \"-\" indicates \"no\"", "method": "Fluorescein isothiocyanate-labelled anti-insulin antibody was prepared as described previously 45. Briefly, gamma globulin that was prepared by immunizing guinea pigs with glutaraldehyde polymerized porcine insulin and purified by Sephadex G-200 chromatography was purchased from Index Corp., Glenwood, Ill, USA. This material was labelled with FITC. Unconjugated FITC was removed by dialysis against 0.01M PBS (pH 7.5) and by gel filtration through a Sephadex G-25. The labelled gamma globulin was subsequently absorbed with acetone-treated mouse liver powder to eliminate nonspecific fluorescence. Pancreatic sections (from 25% of each pancreas) prepared from maltol-treated and untreated NOD mice were stained with FITC-labelled anti-insulin antibody and examined under a fluorescent microscope as described elsewhere 47.48. Briefly, pancreatic sections on the slides were flooded with FITC-labelled anti-insulin antibody and incubated in a humidity chamber overnight at 4° C. in the dark. The slides were then washed in three changes of cold PBS for a total of 20 min to remove any unattached antibody, mounted with Elvanol and observed with an Olympus fluorescence microscope ^45. As it is difficult to determine whether the lymphocytes observed in the pancreatic islets are contributing to beta cell destruction, another method was used to determine whether beta cells from maltol-treated or untreated NOD mice were destroyed or not. Sections of pancreatic islets were stained with a fluorescein-labelled anti-insulin antibody and the number of insulin-containing beta cells in the islets was estimated.", "key": {"[1]": {"conditions": "30% to 69% of beta cell destruction, individual DPD-treated NOD mice (animal 1-5)"}, "[2]": {"conditions": "less than 30% of beta cell destruction, individual DPD-treated NOD mice (animal 1-5)"}, "[3]": {"conditions": "no destruction of beta cells, individual DPD-treated NOD mice (animal 1-5)"}, "[4]": {"conditions": "over 70% of beta cell destruction, individual DPD-treated NOD mice (animal 1-5)"}}, "note": "Values joined by “and” are separate entries in the source; they are usually repeats but may differ in a detail not shown here. Identical values can stand only once."}
{"compound": "Cc1occc(=O)c1O", "note": "[DPD, maltol]", "values": [{"measurement": "Moderate Destruction of beta cells, islets / islets examined", "setting": "[1]", "value": "4/16 and 5/17 and 3/18 and 4/19"}, {"measurement": "Moderate Destruction of beta cells, percent of islets", "setting": "[1]", "value": "25% and 29% and 17% and 21%"}, {"measurement": "Diabetes", "setting": "Table 3, individual DPD-treated NOD mice", "value": "-"}, {"measurement": "Destruction of pancreatic beta cells (in words)", "setting": "compared to untreated, diabetic NOD mice", "value": "significantly lower"}, {"measurement": "Mild destruction, share of examined islets", "setting": "group of DPD-treated NOD mice", "value": 45, "unit": "%"}, {"measurement": "Moderate destruction, share of examined islets", "setting": "group of DPD-treated NOD mice", "value": 23, "unit": "%"}, {"measurement": "No destruction, share of examined islets", "setting": "group of DPD-treated NOD mice", "value": 12, "unit": "%"}, {"measurement": "Severe destruction, share of examined islets", "setting": "group of DPD-treated NOD mice", "value": 20, "unit": "%"}, {"measurement": "Mild Destruction of beta cells, islets / islets examined", "setting": "[2]", "value": "7/16 and 7/17 and 9/18 and 9/19"}, {"measurement": "Mild Destruction of beta cells, percent of islets", "setting": "[2]", "value": "43% and 41% and 50% and 47%"}, {"measurement": "Intact, islets / islets examined", "setting": "[3]", "value": "2/16 and 2/17 and 2/18 and 2/19"}, {"measurement": "Intact, percent of islets", "setting": "[3]", "value": "13% and 12% and 11%"}, {"measurement": "Severe Destruction of beta cells, islets / islets examined", "setting": "[4]", "value": "3/16 and 3/17 and 4/18 and 4/19"}, {"measurement": "Severe Destruction of beta cells, percent of islets", "setting": "[4]", "value": "19% and 18% and 22% and 21%"}]}
